In the supplement of paper PMC10307832:

Legend:
Assay in all cases: relative viability (nuclei count vs DMSO), 5 days (fraction); higher = more cells survive
NCI-H2228 = test system: NCI-H2228
Outline: (§1)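 Five library-drug doses in √10 steps were combined with a fixed anchor-drug dose, or a single drug was given alone, by pin tool to lung cancer cell lines in 1536-well plates the day after seeding. Nuclei were stained and counted after 5 days. Relative viability is the nuclei count in treated wells over that in vehicle wells, taken as the median of duplicate plates.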

SW 1573 = test system: SW 1573
Outline: as §1

NCI-H1755 = test system: NCI-H1755
Outline: as §1

NCI-H1792 = test system: NCI-H1792
Outline: as §1

NCI-H650 = test system: NCI-H650
Outline: as §1

NCI-H1915 = test system: NCI-H1915
Outline: as §1

SK-LU-1 = test system: SK-LU-1
Outline: as §1

HCC-366 = test system: HCC-366
Outline: as §1

LCLC-103H = test system: LCLC-103H
Outline: as §1

NCI-H1355 = test system: NCI-H1355
Outline: as §1

NCI-H2347 = test system: NCI-H2347
Outline: as §1

RERF-LC-KJ = test system: RERF-LC-KJ
Outline: as §1

NCI-H23 = test system: NCI-H23
Outline: as §1

NCI-H1993 = test system: NCI-H1993
Outline: as §1

A-427 = test system: A-427
Outline: as §1

UMC-11 = test system: UMC-11
Outline: as §1

NCI-H1975 = test system: NCI-H1975
Outline: as §1

NCI-H1734 = test system: NCI-H1734
Outline: as §1

HCC-827 = test system: HCC-827
Outline: as §1

LC-2-ad = test system: LC-2-ad
Outline: as §1

## Cc1cn(-c2cc(NC(=O)c3ccc(C)c(Nc4nccc(-c5cccnc5)n4)c3)cc(C(F)(F)F)c2)cn1 [Nilotinib] + CC(C)C[C@H](NC(=O)[C@H](Cc1ccccc1)NC(=O)c1cnccn1)B(O)O [Bortezomib] (partner 0.002 µM)
NCI-H2228; first compound 0.001 µM
  relative viability: 1.09
NCI-H2228; first compound 0.003162 µM
  relative viability: 1.23
NCI-H2228; first compound 0.01 µM
  relative viability: 1.21
NCI-H2228; first compound 0.03162 µM
  relative viability: 0.641
NCI-H2228; first compound 0.1 µM
  relative viability: 0.422
SW 1573; first compound 0.001 µM
  relative viability: 1.02
SW 1573; first compound 0.003162 µM
  relative viability: 1.4
SW 1573; first compound 0.01 µM
  relative viability: 1.54
SW 1573; first compound 0.03162 µM
  relative viability: 0.796
SW 1573; first compound 0.1 µM
  relative viability: 1.09
NCI-H1755; first compound 0.001 µM
  relative viability: 1
NCI-H1755; first compound 0.003162 µM
  relative viability: 1.16
NCI-H1755; first compound 0.01 µM
  relative viability: 1.15
NCI-H1755; first compound 0.03162 µM
  relative viability: 0.81
NCI-H1755; first compound 0.1 µM
  relative viability: 0.929
NCI-H1792; first compound 0.001 µM
  relative viability: 0.94
NCI-H1792; first compound 0.01 µM
  relative viability: 1.2
NCI-H1792; first compound 0.1 µM
  relative viability: 1.23
NCI-H650; first compound 0.001 µM
  relative viability: 0.754
NCI-H650; first compound 0.003162 µM
  relative viability: 0.76
NCI-H650; first compound 0.01 µM
  relative viability: 0.923
NCI-H650; first compound 0.03162 µM
  relative viability: 0.794
NCI-H650; first compound 0.1 µM
  relative viability: 0.714
NCI-H1915; first compound 0.001 µM
  relative viability: 0.932
NCI-H1915; first compound 0.003162 µM
  relative viability: 1.17
NCI-H1915; first compound 0.01 µM
  relative viability: 1.18
NCI-H1915; first compound 0.03162 µM
  relative viability: 0.823
NCI-H1915; first compound 0.1 µM
  relative viability: 0.85
SK-LU-1; first compound 0.001 µM
  relative viability: 1.29
SK-LU-1; first compound 0.01 µM
  relative viability: 0.831
SK-LU-1; first compound 0.03162 µM
  relative viability: 1
SK-LU-1; first compound 0.1 µM
  relative viability: 0.949
HCC-366; first compound 0.001 µM
  relative viability: 0.88
HCC-366; first compound 0.003162 µM
  relative viability: 1.74
HCC-366; first compound 0.01 µM
  relative viability: 1.35
HCC-366; first compound 0.03162 µM
  relative viability: 0.692
HCC-366; first compound 0.1 µM
  relative viability: 0.844
LCLC-103H; first compound 0.001 µM
  relative viability: 1.08
LCLC-103H; first compound 0.003162 µM
  relative viability: 1.29
LCLC-103H; first compound 0.03162 µM
  relative viability: 1.15
LCLC-103H; first compound 0.1 µM
  relative viability: 0.909
NCI-H1355; first compound 0.001 µM
  relative viability: 1.09
NCI-H1355; first compound 0.003162 µM
  relative viability: 1.52
NCI-H1355; first compound 0.01 µM
  relative viability: 1.28
NCI-H1355; first compound 0.03162 µM
  relative viability: 1.15
NCI-H1355; first compound 0.1 µM
  relative viability: 0.639
NCI-H2347; first compound 0.001 µM
  relative viability: 0.8
NCI-H2347; first compound 0.003162 µM
  relative viability: 1.08
NCI-H2347; first compound 0.01 µM
  relative viability: 1.17
NCI-H2347; first compound 0.03162 µM
  relative viability: 0.702
NCI-H2347; first compound 0.1 µM
  relative viability: 0.865
RERF-LC-KJ; first compound 0.001 µM
  relative viability: 1.12
RERF-LC-KJ; first compound 0.003162 µM
  relative viability: 1.14
RERF-LC-KJ; first compound 0.01 µM
  relative viability: 1.22
RERF-LC-KJ; first compound 0.03162 µM
  relative viability: 1.05
RERF-LC-KJ; first compound 0.1 µM
  relative viability: 1.02
NCI-H23; first compound 0.001 µM
  relative viability: 1.07
NCI-H23; first compound 0.003162 µM
  relative viability: 1.37
NCI-H23; first compound 0.01 µM
  relative viability: 1.4
NCI-H23; first compound 0.03162 µM
  relative viability: 0.73
NCI-H23; first compound 0.1 µM
  relative viability: 0.775
NCI-H1993; first compound 0.001 µM
  relative viability: 1.11
NCI-H1993; first compound 0.003162 µM
  relative viability: 0.878
NCI-H1993; first compound 0.01 µM
  relative viability: 1.06
NCI-H1993; first compound 0.03162 µM
  relative viability: 0.896
NCI-H1993; first compound 0.1 µM
  relative viability: 0.953
A-427; first compound 0.001 µM
  relative viability: 0.928
A-427; first compound 0.01 µM
  relative viability: 0.95
A-427; first compound 0.03162 µM
  relative viability: 1.02
A-427; first compound 0.1 µM
  relative viability: 0.536
UMC-11; first compound 0.001 µM
  relative viability: 0.65
UMC-11; first compound 0.003162 µM
  relative viability: 0.658
UMC-11; first compound 0.01 µM
  relative viability: 0.806
UMC-11; first compound 0.1 µM
  relative viability: 0.333
NCI-H1975; first compound 0.001 µM
  relative viability: 0.32
NCI-H1975; first compound 0.003162 µM
  relative viability: 0.315
NCI-H1975; first compound 0.01 µM
  relative viability: 0.268
NCI-H1975; first compound 0.03162 µM
  relative viability: 0.279
NCI-H1975; first compound 0.1 µM
  relative viability: 0.171
NCI-H1734; first compound 0.001 µM
  relative viability: 0.877
NCI-H1734; first compound 0.003162 µM
  relative viability: 0.948
NCI-H1734; first compound 0.01 µM
  relative viability: 1.01
NCI-H1734; first compound 0.03162 µM
  relative viability: 0.558
NCI-H1734; first compound 0.1 µM
  relative viability: 0.6
HCC-827; first compound 0.003162 µM
  relative viability: 1.19
HCC-827; first compound 0.01 µM
  relative viability: 1.08
HCC-827; first compound 0.03162 µM
  relative viability: 1.07
HCC-827; first compound 0.1 µM
  relative viability: 1.06
LC-2-ad; first compound 0.001 µM
  relative viability: 0.914
LC-2-ad; first compound 0.003162 µM
  relative viability: 1.17
LC-2-ad; first compound 0.01 µM
  relative viability: 0.983
LC-2-ad; first compound 0.03162 µM
  relative viability: 0.992
LC-2-ad; first compound 0.1 µM
  relative viability: 0.527

## CN1CCN(CCOc2cc(OC3CCOCC3)c3c(Nc4c(Cl)ccc5c4OCO5)ncnc3c2)CC1 [Saracatinib] + CC(C)C[C@H](NC(=O)[C@H](Cc1ccccc1)NC(=O)c1cnccn1)B(O)O [Bortezomib] (partner 0.002 µM)
NCI-H2228; first compound 0.02 µM
  relative viability: 1.05
NCI-H2228; first compound 0.2 µM
  relative viability: 0.684
NCI-H2228; first compound 0.6325 µM
  relative viability: 1.2
NCI-H2228; first compound 2 µM
  relative viability: 0.652
SW 1573; first compound 0.02 µM
  relative viability: 0.997
SW 1573; first compound 0.2 µM
  relative viability: 0.906
SW 1573; first compound 0.6325 µM
  relative viability: 0.955
SW 1573; first compound 2 µM
  relative viability: 0.933
NCI-H1755; first compound 0.02 µM
  relative viability: 1.02
NCI-H1755; first compound 0.2 µM
  relative viability: 0.792
NCI-H1755; first compound 0.6325 µM
  relative viability: 1.08
NCI-H1755; first compound 2 µM
  relative viability: 0.83
NCI-H1792; first compound 0.02 µM
  relative viability: 0.956
NCI-H1792; first compound 0.2 µM
  relative viability: 0.344
NCI-H1792; first compound 0.6325 µM
  relative viability: 1.06
NCI-H1792; first compound 2 µM
  relative viability: 0.914
NCI-H650; first compound 0.02 µM
  relative viability: 0.925
NCI-H650; first compound 0.2 µM
  relative viability: 0.751
NCI-H650; first compound 0.6325 µM
  relative viability: 0.947
NCI-H650; first compound 2 µM
  relative viability: 0.799
NCI-H1915; first compound 0.02 µM
  relative viability: 0.959
NCI-H1915; first compound 0.2 µM
  relative viability: 0.813
NCI-H1915; first compound 0.6325 µM
  relative viability: 0.978
NCI-H1915; first compound 2 µM
  relative viability: 0.886
SK-LU-1; first compound 0.02 µM
  relative viability: 1.31
SK-LU-1; first compound 0.2 µM
  relative viability: 1.19
SK-LU-1; first compound 0.6325 µM
  relative viability: 0.829
SK-LU-1; first compound 2 µM
  relative viability: 0.735
HCC-366; first compound 0.02 µM
  relative viability: 1.04
HCC-366; first compound 0.6325 µM
  relative viability: 0.935
HCC-366; first compound 2 µM
  relative viability: 0.769
LCLC-103H; first compound 0.02 µM
  relative viability: 1.21
LCLC-103H; first compound 0.2 µM
  relative viability: 0.963
LCLC-103H; first compound 0.6325 µM
  relative viability: 1.09
LCLC-103H; first compound 2 µM
  relative viability: 0.941
NCI-H1355; first compound 0.02 µM
  relative viability: 1.18
NCI-H1355; first compound 0.2 µM
  relative viability: 1.15
NCI-H1355; first compound 0.6325 µM
  relative viability: 1.44
NCI-H1355; first compound 2 µM
  relative viability: 1.17
NCI-H2347; first compound 0.02 µM
  relative viability: 1.01
NCI-H2347; first compound 0.2 µM
  relative viability: 0.921
NCI-H2347; first compound 0.6325 µM
  relative viability: 1.2
NCI-H2347; first compound 2 µM
  relative viability: 0.893
RERF-LC-KJ; first compound 0.02 µM
  relative viability: 1.09
RERF-LC-KJ; first compound 0.2 µM
  relative viability: 1.23
RERF-LC-KJ; first compound 0.6325 µM
  relative viability: 0.993
RERF-LC-KJ; first compound 2 µM
  relative viability: 0.942
NCI-H23; first compound 0.02 µM
  relative viability: 1.09
NCI-H23; first compound 0.6325 µM
  relative viability: 0.95
NCI-H23; first compound 2 µM
  relative viability: 1.12
NCI-H1993; first compound 0.02 µM
  relative viability: 1.18
NCI-H1993; first compound 0.2 µM
  relative viability: 0.559
NCI-H1993; first compound 2 µM
  relative viability: 0.67
A-427; first compound 0.02 µM
  relative viability: 1.03
A-427; first compound 0.2 µM
  relative viability: 0.804
A-427; first compound 0.6325 µM
  relative viability: 0.871
A-427; first compound 2 µM
  relative viability: 0.981
UMC-11; first compound 0.02 µM
  relative viability: 0.667
UMC-11; first compound 0.6325 µM
  relative viability: 0.64
UMC-11; first compound 2 µM
  relative viability: 0.494
NCI-H1975; first compound 0.02 µM
  relative viability: 0.356
NCI-H1975; first compound 0.6325 µM
  relative viability: 0.443
NCI-H1975; first compound 2 µM
  relative viability: 0.331
NCI-H1734; first compound 0.02 µM
  relative viability: 1.08
NCI-H1734; first compound 0.6325 µM
  relative viability: 0.891
NCI-H1734; first compound 2 µM
  relative viability: 0.842
HCC-827; first compound 0.02 µM
  relative viability: 0.965
HCC-827; first compound 0.2 µM
  relative viability: 0.963
HCC-827; first compound 0.6325 µM
  relative viability: 0.479
HCC-827; first compound 2 µM
  relative viability: 0.306
LC-2-ad; first compound 0.02 µM
  relative viability: 1.15
LC-2-ad; first compound 0.6325 µM
  relative viability: 1.12
LC-2-ad; first compound 2 µM
  relative viability: 0.843
